# Data published in publication PMC6843832, “Synthesis of Novel Analogs of Thieno[2,3-d] Pyrimidin-4(3H)-ones as Selective Inhibitors of Cancer Cell Growth” (Biomolecules, 2019).
# Like-named read-outs stand apart in the source and are kept apart here.
# Tests used:
# MCF-7 cells = test: MTT assay, MCF-7 cells; assay type: cell-based; settings: MCF7, human breast cancer cells, 72 h, read-out: Cytotoxic activity (IC50) MCF-7
# Description: (§1) Primary human liver HL-7702 cells were purchased from SIBS (Shanghai Institutes for Biological Sciences, Shanghai, China) while MCF-7, A549, PC-9 and PC-3 cells were from ATCC (American Type Culture Collection, Rockville, MD, USA). HL-7702, PC-9 and A549 cells were incubated with Roswell Park Memorial Institute (RPMI) 1640 medium and MCF-7 were cultured in Dulbecco’s Modified Eagle’s Medium (DMEM) supplemented with 10% heat-inactivated fetal bovine serum (FBS) and 1% antibiotics (penicillin and streptomycin). PC-3, a human prostate adenocarcinoma cell, was maintained in Ham’s F-12 Medium supplemented with 10% FBS, 1% penicillin/streptomycin and 1% glutamine. All cells were cultured at 37 °C in an incubator containing 5% CO2. The cell viability was determined by using the MTT (methyl thiazolyl tetrazolium bromide) assay. Briefly, cells were seeded in 96-well plates (4 × 10^3 cells/well) overnight and exposed to the synthesized compounds with various concentrations. Camptothecin and dimethyl sulfoxide (DMSO) served as a positive control and a negative control respectively. After 72 h of incubation, 20 μL of MTT (5 mg/mL in phosphate buffer saline (PBS)) were added into each well. Dissolved yellowish MTT is converted to an insoluble purple formazan during incubation (4 h). In order to dissolve the formazan crystals, 100 μL of lysis solution (10% SDS (sodium dodecyl sulfate)-5% isobutyl alcohol-0.01M HCl) was added into per well. Finally, the optical density (OD) of solution in the plates was measured using a microplate reader at 570 nm after dissolving overnight. Cell viability was calculated by using the following formula: […].
# PC-9 cells = test: MTT assay, PC-9 cells; assay type: cell-based; settings: human non-small cell lung cancer cells, 72 h, read-out: Cytotoxic activity (IC50) PC-9
# Description: as §1
# MTT assay, HL-7702 cells = assay type: cell-based, human; settings: HL-7702 cells (normal liver cells); normal human liver cells, MTT, 72 h; read-out: Cytotoxic activity (IC50) HL-7702
# Description: as §1
# A549 cells = test: MTT assay, A549 cells; assay type: cell-based; settings: human non-small cell lung cancer cells, read-out: Cytotoxic activity (IC50) A549
# Description: as §1
# PC-3 cells = test: MTT assay, PC-3 cells; assay type: cell-based; settings: human prostate cancer cells, 72 h, read-out: Cytotoxic activity (IC50) PC-3
# Description: as §1
melting point,SMILES,IC50 (MCF-7 cells),IC50 (PC-9 cells),"IC50 at 72 h (MTT assay, HL-7702 cells)","IC50 (A549 cells; Homo sapiens, A549, 72 h)",IC50 (PC-3 cells),IC50 (A549 cells; 72 h)
,Cc1cc(-c2nc3sc4c(c3c(=O)n2Cc2ccccc2)CCCC4)sc1C [Compound 6],59.86 ± 0.34 µM,> 100 µM,> 100 µM,17.4 ± 0.88 µM,> 100 µM,
192 to 194 °C,O=c1c2c3c(sc2nc(-c2ccco2)n1Cc1ccccc1)CCCCC3 [Compound 11],65.63 ± 0.26 µM,> 100 µM,> 100 µM,51.42 ± 0.46 µM,> 100 µM,
,O=c1c2c3c(sc2nc(-c2ccc(Cl)cc2)n1Cc1ccccc1)CCCC3 [Compound 1],> 100 µM,> 100 µM,> 100 µM,> 100 µM,> 100 µM,
,Cc1ccc(-c2nc3sc4c(c3c(=O)n2CCc2ccc(O)cc2)CCOC4)cc1 [Compound 24],> 100 µM,> 100 µM,> 100 µM,32.9 ± 1.84 µM,> 100 µM,
170 to 172 °C,O=c1c2c3c(sc2nc(-c2ccc(Cl)cc2)n1Cc1ccccc1)CCCCC3 [Compound 16],> 100 µM,> 100 µM,> 100 µM,81 ± 1.04 µM,> 100 µM,
,Cc1ccc(-c2nc3sc4c(c3c(=O)n2Cc2ccccc2)CCCCC4)o1 [Compound 18],96.36 ± 0.72 µM,58.28 ± 0.18 µM,> 100 µM,63.2 ± 0.03 µM,92 ± 2.34 µM,
162 to 164 °C,Cc1sc2nc(-c3cccs3)n(Cc3ccccc3)c(=O)c2c1C [Compound 20],> 100 µM,> 100 µM,> 100 µM,80.1 ± 0.83 µM,> 100 µM,
,Cc1cc(-c2nc3sc4c(c3c(=O)n2CCc2ccc(O)cc2)CCCC4)sc1C [Compound 8],> 100 µM,92.97 ± 0.52 µM,> 100 µM,50.92 ± 0.07 µM,87.75 ± 0.63 µM,
,O=c1c2c3c(sc2nc(-c2ccc(F)cc2)n1CCc1ccc(O)cc1)CCCC3 [Compound 7],10.4 ± 1.32 µM,44.8 ± 4.47 µM,> 100 µM,< 10 µM,> 100 µM,6.86 ± 0.98 µM
238 to 240 °C,O=c1c2c3c(sc2nc(-c2cccc(Cl)c2)n1CCc1ccc(O)cc1)CCCC3 [Compound 9],30.7 ± 0.29 µM,> 100 µM,> 100 µM,19.6 ± 0.33 µM,> 100 µM,
,O=c1c2c3c(sc2nc(-c2cccc(Cl)c2)n1Cc1ccccc1)COCC3 [Compound 25],> 100 µM,> 100 µM,> 100 µM,44 ± 0.71 µM,94.2 ± 1.83 µM,
,Cc1ccc(-c2nc3sc4c(c3c(=O)n2CCc2ccc(O)cc2)CCCC4)cc1 [Compound 10],27.47 ± 0.02 µM,49.7 ± 2.27 µM,> 100 µM,< 10 µM,43.4 ± 2.73 µM,8.51 ± 0.16 µM
,O=c1c2c3c(sc2nc(-c2cccs2)n1CCc1ccc(O)cc1)CCCC3 [Compound 12],36.4 ± 1.41 µM,54.2 ± 2.06 µM,> 100 µM,11.7 ± 0.12 µM,21.9 ± 1.76 µM,
,Cc1cc(-c2nc3sc4c(c3c(=O)n2Cc2ccccc2)CCCCC4)sc1C [Compound 13],75.94 ± 0.17 µM,> 100 µM,> 100 µM,49.86 ± 0.3 µM,92.5 ± 1.89 µM,
185 to 187 °C,O=c1c2c3c(sc2nc(-c2cccs2)n1Cc1ccccc1)CCCC3 [Compound 5],97.5 ± 0.13 µM,81 ± 3.94 µM,> 100 µM,> 100 µM,> 100 µM,
,O=c1c2c3c(sc2nc(-c2ccccc2)n1Cc1ccccc1)CCCC3 [Compound 2],> 100 µM,> 100 µM,> 100 µM,> 100 µM,> 100 µM,
186 to 188 °C,Cc1cc(-c2nc3sc4c(c3c(=O)n2CCc2ccc(O)cc2)CCCCC4)sc1C [Compound 14],46.1 ± 0.48 µM,86.33 ± 0.22 µM,68.64 ± 0.26 µM,49.8 ± 0.68 µM,84.68 ± 0.48 µM,
,O=c1c2c3c(sc2nc(-c2ccc(Cl)cc2)n1CCc1ccc(O)cc1)CCCCC3 [Compound 19],13.04 ± 0.11 µM,26.7 ± 1.38 µM,19.16 ± 0.06 µM,< 10 µM,25.1 ± 0.37 µM,6.26 ± 0.87 µM
146 to 148 °C,O=c1c2c3c(sc2nc(-c2ccc(F)cc2)n1Cc1ccccc1)CCCCC3 [Compound 17],> 100 µM,> 100 µM,> 100 µM,> 100 µM,> 100 µM,
,"CC[C@@]1(O)C(=O)OCc2c1cc1n(c2=O)Cc2cc3ccccc3nc2-1 [CAMPTOTHECIN, camptothecin, reference compound]",0.26 ± 0.05 µM,0.09 ± 0.01 µM,0.11 ± 0.03 µM,0.1 ± 0.02 µM,0.85 ± 0.01 µM,
,Cc1sc2nc(-c3ccc(Cl)cc3)n(CCc3ccc(O)cc3)c(=O)c2c1C [Compound 23],70.64 ± 0.59 µM,> 100 µM,> 100 µM,46.14 ± 0.17 µM,> 100 µM,
,Cc1sc2nc(-c3ccc(F)cc3)n(Cc3ccccc3)c(=O)c2c1C [Compound 21],> 100 µM,> 100 µM,> 100 µM,> 100 µM,> 100 µM,
,Cc1ccc(-c2nc3sc4c(c3c(=O)n2Cc2ccccc2)CCCC4)o1 [Compound 3],> 100 µM,86.1 ± 1.28 µM,55.17 ± 0.5 µM,54.4 ± 1.83 µM,92.9 ± 2.29 µM,
251 to 253 °C,Cc1sc2nc(-c3ccccc3)n(CCc3ccc(O)cc3)c(=O)c2c1C [Compound 22],21.9 ± 0.82 µM,> 100 µM,> 100 µM,> 100 µM,> 100 µM,
161 to 163 °C,O=c1c2c3c(sc2nc(-c2ccc(C(F)(F)F)c(C(F)(F)F)c2)n1Cc1ccccc1)CCCC3 [Compound 4],24.7 ± 2.04 µM,> 100 µM,> 100 µM,58.2 ± 0.65 µM,> 100 µM,
